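Test compounds were applied to cells in 96-well plates for 48 hours at 5 doses. GI50 is the concentration that inhibits growth by half. TGI is the concentration that stops growth completely.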
Assays:
Experiment in all cases: NCI anticancer screen, dose series, 48 h
786-0 renal = system: 786-0 renal
A498 renal = system: A498 renal
A549 NSCLC = system: A549 NSCLC
ACHN renal = system: ACHN renal
BT-549 breast = system: BT-549 breast
CAKI-1 renal = system: CAKI-1 renal
CCRF-CEM leukemia = system: CCRF-CEM leukemia
COLO 205 colon = system: COLO 205 colon
DU-145 prostate = system: DU-145 prostate
EKVX NSCLC = system: EKVX NSCLC
HCC-2998 colon = system: HCC-2998 colon
HCT-116 colon = system: HCT-116 colon
HCT-15 colon = system: HCT-15 colon
HL-60(TB) leukemia = system: HL-60(TB) leukemia
HOP-62 NSCLC = system: HOP-62 NSCLC
HOP-92 NSCLC = system: HOP-92 NSCLC
HS 578T breast = system: HS 578T breast
HT29 colon = system: HT29 colon
IGROV1 ovarian = system: IGROV1 ovarian
K-562 leukemia = system: K-562 leukemia
KM12 colon = system: KM12 colon
LOX IMVI melanoma = system: LOX IMVI melanoma
M14 melanoma = system: M14 melanoma
MALME-3M melanoma = system: MALME-3M melanoma
MCF7 breast = system: MCF7 breast
MDA-MB-231 breast = system: MDA-MB-231 breast
MDA-MB-435 = system: MDA-MB-435
MOLT-4 leukemia = system: MOLT-4 leukemia
NCI-H226 lung = system: NCI-H226 lung
NCI-H23 lung = system: NCI-H23 lung
NCI-H460 lung = system: NCI-H460 lung
NCI-H522 lung = system: NCI-H522 lung
NCI/ADR-RES ovarian = system: NCI/ADR-RES ovarian
OVCAR-3 ovarian = system: OVCAR-3 ovarian
OVCAR-4 ovarian = system: OVCAR-4 ovarian
OVCAR-5 ovarian = system: OVCAR-5 ovarian
OVCAR-8 ovarian = system: OVCAR-8 ovarian
PC-3 prostate = system: PC-3 prostate
RPMI-8226 leukemia = system: RPMI-8226 leukemia
RXF 393 renal = system: RXF 393 renal
SF-268 CNS = system: SF-268 CNS
SF-295 CNS = system: SF-295 CNS
SF-539 CNS = system: SF-539 CNS
SK-MEL-2 melanoma = system: SK-MEL-2 melanoma
SK-MEL-28 melanoma = system: SK-MEL-28 melanoma
SK-MEL-5 melanoma = system: SK-MEL-5 melanoma
SK-OV-3 ovarian = system: SK-OV-3 ovarian
SN12C renal = system: SN12C renal
SNB-19 CNS = system: SNB-19 CNS
SNB-75 CNS = system: SNB-75 CNS
SR leukemia = system: SR leukemia
SW-620 colon = system: SW-620 colon
T-47D breast = system: T-47D breast
TK-10 renal = system: TK-10 renal
U251 CNS = system: U251 CNS
UACC-257 melanoma = system: UACC-257 melanoma
UACC-62 melanoma = system: UACC-62 melanoma
UO-31 renal = system: UO-31 renal

`COc1ccc2nc3ccccc3c(NCCNCCO)c2c1` was tested. Which GI50 (786-0 renal) did it give?
Its GI50 is 649 nM.

And the TGI (786-0 renal)?
The TGI was 7550 nM.

And the GI50 (A498 renal)?
The GI50 was 431 nM.

What about the TGI (A498 renal) of the same compound?
Its TGI is 1710 nM.

What about the GI50 (A549 NSCLC) of the same compound?
The GI50 was 673 nM.

And the TGI (A549 NSCLC)?
Its TGI is 7810 nM.

And the GI50 (ACHN renal)?
The GI50 was 478 nM.

What about the TGI (ACHN renal) of the same compound?
The TGI was 21100 nM.

What about the GI50 (BT-549 breast) of the same compound?
Its GI50 is 1010 nM.

What about the TGI (BT-549 breast) of the same compound?
Its TGI is 4290 nM.

And the GI50 (CAKI-1 renal)?
The GI50 was 1220 nM.

What about the TGI (CAKI-1 renal) of the same compound?
Its TGI is 6500 nM.

What about the GI50 (CCRF-CEM leukemia) of the same compound?
Its GI50 is 597 nM.

What about the TGI (CCRF-CEM leukemia) of the same compound?
The TGI was 6780 nM.

And the GI50 (COLO 205 colon)?
The GI50 was 397 nM.

What about the TGI (COLO 205 colon) of the same compound?
The TGI was 1770 nM.

What about the GI50 (DU-145 prostate) of the same compound?
The GI50 was 588 nM.

And the TGI (DU-145 prostate)?
The TGI was 5800 nM.

What about the GI50 (EKVX NSCLC) of the same compound?
Its GI50 is 1430 nM.

What about the TGI (EKVX NSCLC) of the same compound?
The TGI was 7320 nM.

What about the GI50 (HCC-2998 colon) of the same compound?
Its GI50 is 898 nM.

What about the TGI (HCC-2998 colon) of the same compound?
The TGI was 2500 nM.

And the GI50 (HCT-116 colon)?
The GI50 was 352 nM.

What about the TGI (HCT-116 colon) of the same compound?
The TGI was 4840 nM.

What about the GI50 (HCT-15 colon) of the same compound?
The GI50 was 2040 nM.

What about the TGI (HCT-15 colon) of the same compound?
Its TGI is 22200 nM.

What about the GI50 (HL-60(TB) leukemia) of the same compound?
Its GI50 is 572 nM.

And the TGI (HL-60(TB) leukemia)?
Its TGI is 1680 nM.

And the GI50 (HOP-62 NSCLC)?
Its GI50 is 604 nM.

What about the TGI (HOP-62 NSCLC) of the same compound?
The TGI was 3990 nM.

And the GI50 (HOP-92 NSCLC)?
Its GI50 is 908 nM.

And the TGI (HOP-92 NSCLC)?
Its TGI is 4220 nM.

What about the GI50 (HS 578T breast) of the same compound?
Its GI50 is 688 nM.

And the TGI (HS 578T breast)?
Its TGI is 3850 nM.

And the GI50 (HT29 colon)?
Its GI50 is 378 nM.

And the TGI (HT29 colon)?
Its TGI is 4330 nM.

What about the GI50 (IGROV1 ovarian) of the same compound?
Its GI50 is 540 nM.

And the TGI (IGROV1 ovarian)?
The TGI was 3060 nM.

And the GI50 (K-562 leukemia)?
The GI50 was 356 nM.

And the TGI (K-562 leukemia)?
Its TGI is 4330 nM.

And the GI50 (KM12 colon)?
Its GI50 is 455 nM.

And the TGI (KM12 colon)?
Its TGI is 3370 nM.

What about the GI50 (LOX IMVI melanoma) of the same compound?
The GI50 was 404 nM.

What about the TGI (LOX IMVI melanoma) of the same compound?
Its TGI is 3750 nM.

And the GI50 (M14 melanoma)?
The GI50 was 709 nM.

What about the TGI (M14 melanoma) of the same compound?
Its TGI is 2240 nM.

What about the GI50 (MALME-3M melanoma) of the same compound?
Its GI50 is 382 nM.

What about the TGI (MALME-3M melanoma) of the same compound?
The TGI was 1880 nM.

And the GI50 (MCF7 breast)?
The GI50 was 363 nM.

And the TGI (MCF7 breast)?
Its TGI is 7330 nM.

What about the GI50 (MDA-MB-231 breast) of the same compound?
The GI50 was 932 nM.

What about the TGI (MDA-MB-231 breast) of the same compound?
The TGI was 3720 nM.

What about the GI50 (MDA-MB-435) of the same compound?
The GI50 was 474 nM.

What about the TGI (MDA-MB-435) of the same compound?
The TGI was 1830 nM.

And the GI50 (MOLT-4 leukemia)?
The GI50 was 393 nM.

What about the TGI (MOLT-4 leukemia) of the same compound?
Its TGI is 3770 nM.

What about the GI50 (NCI-H226 lung) of the same compound?
Its GI50 is 947 nM.

What about the TGI (NCI-H226 lung) of the same compound?
The TGI was 3380 nM.

What about the GI50 (NCI-H23 lung) of the same compound?
The GI50 was 762 nM.

And the TGI (NCI-H23 lung)?
The TGI was 3530 nM.

What about the GI50 (NCI-H460 lung) of the same compound?
Its GI50 is 341 nM.

And the TGI (NCI-H460 lung)?
Its TGI is 1920 nM.

What about the GI50 (NCI-H522 lung) of the same compound?
The GI50 was 380 nM.

What about the TGI (NCI-H522 lung) of the same compound?
Its TGI is 1970 nM.

What about the GI50 (NCI/ADR-RES ovarian) of the same compound?
Its GI50 is 5040 nM.

And the TGI (NCI/ADR-RES ovarian)?
The TGI was greater than 89000 nM.

And the GI50 (OVCAR-3 ovarian)?
Its GI50 is 624 nM.

What about the TGI (OVCAR-3 ovarian) of the same compound?
The TGI was 2770 nM.

What about the GI50 (OVCAR-4 ovarian) of the same compound?
Its GI50 is 836 nM.

And the TGI (OVCAR-4 ovarian)?
The TGI was 3260 nM.

What about the GI50 (OVCAR-5 ovarian) of the same compound?
Its GI50 is 1180 nM.

What about the TGI (OVCAR-5 ovarian) of the same compound?
The TGI was 8850 nM.

And the GI50 (OVCAR-8 ovarian)?
The GI50 was 528 nM.

And the TGI (OVCAR-8 ovarian)?
The TGI was 8880 nM.

What about the GI50 (PC-3 prostate) of the same compound?
Its GI50 is 554 nM.

And the TGI (PC-3 prostate)?
Its TGI is 3790 nM.

And the GI50 (RPMI-8226 leukemia)?
Its GI50 is 406 nM.

And the TGI (RPMI-8226 leukemia)?
The TGI was 2730 nM.

And the GI50 (RXF 393 renal)?
Its GI50 is 763 nM.

And the TGI (RXF 393 renal)?
The TGI was 2340 nM.

What about the GI50 (SF-268 CNS) of the same compound?
The GI50 was 460 nM.

What about the TGI (SF-268 CNS) of the same compound?
Its TGI is 2950 nM.

What about the GI50 (SF-295 CNS) of the same compound?
The GI50 was 484 nM.

And the TGI (SF-295 CNS)?
Its TGI is 2620 nM.

And the GI50 (SF-539 CNS)?
Its GI50 is 801 nM.

And the TGI (SF-539 CNS)?
Its TGI is 2990 nM.

What about the GI50 (SK-MEL-2 melanoma) of the same compound?
Its GI50 is 448 nM.

What about the TGI (SK-MEL-2 melanoma) of the same compound?
Its TGI is 2800 nM.

What about the GI50 (SK-MEL-28 melanoma) of the same compound?
The GI50 was 1190 nM.

And the TGI (SK-MEL-28 melanoma)?
Its TGI is 3080 nM.

What about the GI50 (SK-MEL-5 melanoma) of the same compound?
The GI50 was 1050 nM.

What about the TGI (SK-MEL-5 melanoma) of the same compound?
Its TGI is 2350 nM.

What about the GI50 (SK-OV-3 ovarian) of the same compound?
Its GI50 is 869 nM.

And the TGI (SK-OV-3 ovarian)?
The TGI was 7670 nM.

What about the GI50 (SN12C renal) of the same compound?
Its GI50 is 533 nM.

What about the TGI (SN12C renal) of the same compound?
The TGI was 7700 nM.

And the GI50 (SNB-19 CNS)?
Its GI50 is 661 nM.

What about the TGI (SNB-19 CNS) of the same compound?
The TGI was 6900 nM.

And the GI50 (SNB-75 CNS)?
Its GI50 is 854 nM.

What about the TGI (SNB-75 CNS) of the same compound?
The TGI was 2130 nM.

What about the GI50 (SR leukemia) of the same compound?
The GI50 was 214 nM.

What about the TGI (SR leukemia) of the same compound?
Its TGI is 1330 nM.

And the GI50 (SW-620 colon)?
Its GI50 is 362 nM.

And the TGI (SW-620 colon)?
The TGI was 3660 nM.

And the GI50 (T-47D breast)?
The GI50 was 673 nM.

What about the TGI (T-47D breast) of the same compound?
The TGI was 6710 nM.

What about the GI50 (TK-10 renal) of the same compound?
The GI50 was 716 nM.

And the TGI (TK-10 renal)?
The TGI was 9960 nM.

What about the GI50 (U251 CNS) of the same compound?
Its GI50 is 479 nM.

And the TGI (U251 CNS)?
The TGI was 4350 nM.

And the GI50 (UACC-257 melanoma)?
The GI50 was 655 nM.

What about the TGI (UACC-257 melanoma) of the same compound?
Its TGI is 2340 nM.

What about the GI50 (UACC-62 melanoma) of the same compound?
Its GI50 is 1090 nM.

What about the TGI (UACC-62 melanoma) of the same compound?
Its TGI is 2990 nM.

And the GI50 (UO-31 renal)?
The GI50 was 328 nM.

And the TGI (UO-31 renal)?
The TGI was 1680 nM.

— PubChem BioAssay (NCI)
